# Like-named read-outs stand apart in the source and are kept apart here.
# Assays:
# Bacteroides fragilis = test: Mode MIC of antibiotic and PA 1,1-Dioxide alone and in combination; format: cell-based; settings: for MIC: Bacteroides fragilis, 18 h, read-out: Mode MIC alone; for Mode MIC's of ampicillin and PA 1,1-Dioxide in combination: ampicillin + PA 1,1-Dioxide in combination; for Mode MIC's of penicillin G and PA 1,1-Dioxide in combination: penicillin G + PA 1,1-Dioxide in combination
# Description: (§1) As indicated hereinbefore, the compounds of formula I, wherein R^1 is hydrogen or an ester-forming residue readily hydrolyzable in vivo, are antibacterial agents of medium potency. […] The procedure which is followed is the one recommended by the International Collaborative Study on Antibiotic Sensitivity Testing (Ericcson and Sherris, Acta. Pathologica et Microbiologia Scandinav, Supp. 217, Section B: 64-68 [1971]), and employs brain heart infusion (BHI) agar and the inocula replicating device. Overnight growth tubes are diluted 100 fold for use as the standard inoculum (20,000-10,000 cells in approximately 0.002 ml. are placed on the agar surface; 20 ml. of BHI agar/dish). Twelve 2 fold dilutions of the test compound are employed, with initial concentration of the test drug being 200 mcg./ml. Single colonies are disregarded when reading plates after 18 hrs. at 37° C. The susceptibility (MIC) of the test organism is accepted as the lowest concentration of compound capable of producing complete inhibition of growth as judged by the naked eye.
# (§2) The manner in which the said compounds of the formula I increase the effectiveness of a β-lactam antibiotic can be appreciated by reference to experiments in which the MIC of a given antibiotic alone, and a compound of the formula I wherein R^1 is hydrogen, alone, are measured. These MIC's are then compared with the MIC values obtained with a combination of the given antibiotic and the compound of the formula I wherein R^1 is hydrogen. […] The MIC values of combinations are measured using the method described by Barry and Sabath in "Manual of Clinical Microbiology", edited by Lenette, Spaulding and Truant, 2nd Edition, 1974, American Society for Microbiology.
# (§3) From Table II, it can be seen that against 19 ampicillin-resistant strains of Staphylococcus aureus, the mode MIC of ampicillin, and of penicillanic acid 1,1-dioxide, is 200 mcg./ml. […] The other entries in Table II show enhancement of the antibacterial effectiveness of ampicillin against 26 ampicillin resistant strains of Haemophilus influenzae, 18 ampicillin resistant strains of Klebsiella pneumoniae, and 15 strains of the anerobe Bacteroides fragilis. Tables III, IV and V show enhancement of the antibacterial potency of benzylpenicillin (penicillin G) carbenicillin (α-carboxybenzylpenicillin) and cefazolin, respectively, against strains of S. aureus, H. influenzae, K. pneumoniae and Bacteroides fragilis.
# Haemophilus influenzae = test: as above; format: cell-based; settings: for MIC: Haemophilus influenzae, 18 h, alone; for Mode MIC's of ampicillin and PA 1,1-Dioxide in combination: ampicillin + PA 1,1-Dioxide in combination; for Mode MIC's of penicillin G and PA 1,1-Dioxide in combination: Table III, penicillin G + PA 1,1-Dioxide in combination
# Description: as §1, §2, §3
# Klebsiella pneumoniae [1] = test: as above; format: cell-based; settings: for MIC: Klebsiella pneumoniae, 18 h, read-out: Mode MIC alone; for Mode MIC's of ampicillin and PA 1,1-Dioxide in combination: ampicillin + PA 1,1-Dioxide in combination; for Mode MIC's of penicillin G and PA 1,1-Dioxide in combination: penicillin G + PA 1,1-Dioxide in combination
# Description: as §1, §2, §3
# Staphylococcus aureus [2] = test: as above; format: cell-based; settings: for MIC: Staphylococcus aureus, 18 h, read-out: Mode MIC alone; for Mode MIC's of ampicillin and PA 1,1-Dioxide in combination: ampicillin + PA 1,1-Dioxide in combination; for Mode MIC's of penicillin G and PA 1,1-Dioxide in combination: penicillin G + PA 1,1-Dioxide in combination
# Description: as §1, §2, §3
# Citrobacter freundii = test: In vitro antibacterial activity (MIC), Table I; format: cell-based; settings: BHI agar, 18 hrs. at 37° C.
# Description: as §1
# Enterobacter aerogenes = test: In vitro antibacterial activity (MIC), Table I; format: cell-based; settings: Klebsiella aerogenes; BHI agar, 18 hrs. at 37° C.
# Description: as §1
# Enterobacter clocae = test: In vitro antibacterial activity (MIC), Table I; format: cell-based; settings: BHI agar, 18 hrs. at 37° C.
# Description: as §1
# Escherichia coli = test: In vitro antibacterial activity (MIC), Table I; format: cell-based; settings: BHI agar, 18 hrs. at 37° C.
# Description: as §1
# Hemophilus influenzae = test: In vitro antibacterial activity (MIC), Table I; format: cell-based; settings: Haemophilus influenzae; BHI agar, 18 hrs. at 37° C.
# Description: as §1
# Klebsiella pneumoniae [3] = test: In vitro antibacterial activity (MIC), Table I; format: cell-based; settings: BHI agar, 18 hrs. at 37° C.
# Description: as §1
# Neisseria gonorrhoeae = test: In vitro antibacterial activity (MIC), Table I; format: cell-based; settings: BHI agar, 18 hrs. at 37° C.
# Description: as §1
# Pasteurella multocida = test: In vitro antibacterial activity (MIC), Table I; format: cell-based; settings: BHI agar, 18 hrs. at 37° C.
# Description: as §1
# Proteus mirabilis = test: In vitro antibacterial activity (MIC), Table I; format: cell-based; settings: BHI agar, 18 hrs. at 37° C.
# Description: as §1
# Proteus morgani = test: In vitro antibacterial activity (MIC), Table I; format: cell-based; settings: BHI agar, 18 hrs. at 37° C.
# Description: as §1
# Providencia = test: In vitro antibacterial activity (MIC), Table I; format: cell-based; settings: BHI agar, 18 hrs. at 37° C.
# Description: as §1
# Pseudomonas aeruginosa = test: In vitro antibacterial activity (MIC), Table I; format: cell-based; settings: BHI agar, 18 hrs. at 37° C.
# Description: as §1
# Pseudomonas putida = test: In vitro antibacterial activity (MIC), Table I; format: cell-based; settings: BHI agar, 18 hrs. at 37° C.
# Description: as §1
# Salmonella typhimurium = test: In vitro antibacterial activity (MIC), Table I; format: cell-based; settings: Salmonella enterica, BHI agar, 18 hrs. at 37° C.
# Description: as §1
# Serratia marcescens = test: In vitro antibacterial activity (MIC), Table I; format: cell-based; settings: BHI agar, 18 hrs. at 37° C.
# Description: as §1
# Staphylococcus aureus [4] = test: In vitro antibacterial activity (MIC), Table I; format: cell-based; settings: BHI agar, 18 hrs. at 37° C.
# Description: as §1
# Staphylococcus epidermis = test: In vitro antibacterial activity (MIC), Table I; format: cell-based; settings: BHI agar, 18 hrs. at 37° C.
# Description: as §1
# Streptococcus faecalis = test: In vitro antibacterial activity (MIC), Table I; format: cell-based; settings: Enterococcus faecalis; BHI agar, 18 hrs. at 37° C.
# Description: as §1
# Streptococcus pyogenes = test: In vitro antibacterial activity (MIC), Table I; format: cell-based; settings: BHI agar, 18 hrs. at 37° C.
# Description: as §1
# microbial β-lactamases = test: Inhibition of microbial β-lactamases; format: biochemical; settings: result in words
# [5] = tested on: many microorganisms, particularly those which produce a β-lactamase; test: Enhancement of antibacterial effectiveness of β-lactam antibiotics (combination MIC); format: cell-based; settings: result in words; combination with β-lactam antibiotic
# Procedure: as §2
# [6] = Table II, 26 ampicillin resistant strains
# [7] = Table II, 18 ampicillin resistant strains
# [8] = Table II, 19 ampicillin-resistant strains
# [9] = read-out: Mode MIC alone, Table III, 25 strains
structure (smiles),measurement,setting,value
"CC1(C)S[C@@H]2[C@H](NC(=O)[C@H](N)c3ccccc3)C(=O)N2[C@H]1C(=O)O [ampicillin, reference compound]",MIC,"Bacteroides fragilis; Table II, 15 strains, alone",50 µg/mL
same,"Mode MIC's of ampicillin and PA 1,1-Dioxide in combination","Bacteroides fragilis; Table II, 15 strains",1.56 µg/mL
same,MIC,"Haemophilus influenzae; Table II, 26 ampicillin resistant strains, read-out: Mode MIC alone",200 µg/mL
same,"Mode MIC's of ampicillin and PA 1,1-Dioxide in combination",Haemophilus influenzae; [6],0.78 µg/mL
same,MIC,"Klebsiella pneumoniae [1]; Table II, 18 ampicillin resistant strains, alone",> 400 µg/mL
same,"Mode MIC's of ampicillin and PA 1,1-Dioxide in combination",Klebsiella pneumoniae [1]; [7],6.25 µg/mL
same,MIC,"Staphylococcus aureus [2]; Table II, 19 ampicillin-resistant strains, alone",200 µg/mL
same,"Mode MIC's of ampicillin and PA 1,1-Dioxide in combination",Staphylococcus aureus [2]; [8],1.56 µg/mL
"CC1(C)S[C@@H]2[C@H](NC(=O)Cc3ccccc3)C(=O)N2[C@H]1C(=O)O [penicillin G, reference compound]",MIC,Bacteroides fragilis,25 µg/mL
same,"Mode MIC's of penicillin G and PA 1,1-Dioxide in combination","Bacteroides fragilis; Table III, 15 strains",1.56 µg/mL
same,MIC,Haemophilus influenzae; [9],50 µg/mL
same,"Mode MIC's of penicillin G and PA 1,1-Dioxide in combination",Haemophilus influenzae; 25 strains,0.78 µg/mL
same,MIC,Klebsiella pneumoniae [1],400 µg/mL
same,"Mode MIC's of penicillin G and PA 1,1-Dioxide in combination","Klebsiella pneumoniae [1]; Table III, 24 strains",25 µg/mL
same,MIC,Staphylococcus aureus [2],200 µg/mL
same,"Mode MIC's of penicillin G and PA 1,1-Dioxide in combination","Staphylococcus aureus [2]; Table III, 20 strains",3.12 µg/mL
"CC1(C)[C@H](C(=O)O)N2C(=O)C[C@H]2S1(=O)=O [Penicillanic Acid 1,1-Dioxide]",MIC,Citrobacter freundii,50 µg/mL
same,MIC,Enterobacter aerogenes,25 µg/mL
same,MIC,Enterobacter clocae,100 µg/mL
same,MIC,Escherichia coli,50 µg/mL
same,MIC,Hemophilus influenzae,> 50 µg/mL
same,MIC,Klebsiella pneumoniae [3],50 µg/mL
same,MIC,Neisseria gonorrhoeae,0.312 µg/mL
same,MIC,Pasteurella multocida,50 µg/mL
same,MIC,Proteus mirabilis,100 µg/mL
same,MIC,Proteus morgani,100 µg/mL
same,MIC,Providencia,100 µg/mL
same,MIC,Pseudomonas aeruginosa,200 µg/mL
same,MIC,Pseudomonas putida,> 200 µg/mL
same,MIC,Salmonella typhimurium,50 µg/mL
same,MIC,Serratia marcescens,100 µg/mL
same,MIC,Staphylococcus aureus [4],100 µg/mL
same,MIC,Staphylococcus epidermis,200 µg/mL
same,MIC,Streptococcus faecalis,> 200 µg/mL
same,MIC,Streptococcus pyogenes,100 µg/mL
same,MIC,Bacteroides fragilis,50 µg/mL
same,"Mode MIC's of ampicillin and PA 1,1-Dioxide in combination","Bacteroides fragilis; Table II, 15 strains",0.78 µg/mL
same,Mode MIC alone,"Bacteroides fragilis; Table III, 15 strains, alone",50 µg/mL
same,"Mode MIC's of penicillin G and PA 1,1-Dioxide in combination","Bacteroides fragilis; Table III, 15 strains",0.39 µg/mL
same,Mode MIC alone,"Bacteroides fragilis; Table IV, 15 strains, alone",50 µg/mL
same,"Mode MIC's of carbenicillin and PA 1,1-Dioxide in combination","Bacteroides fragilis; Table IV, 15 strains, carbenicillin + PA 1,1-Dioxide in combination",0.78 µg/mL
same,"Mode MIC's of Cefazolin and PA 1,1-Dioxide in Combination","Bacteroides fragilis; Table V, 15 strains, Cefazolin + PA 1,1-Dioxide in combination",6.25 µg/mL
same,Mode MIC alone,"Bacteroides fragilis; Table V, 15 strains, alone",50 µg/mL
same,MIC,"Haemophilus influenzae; read-out: Mode MIC alone, Table II, 26 ampicillin resistant strains",> 200 µg/mL
same,MIC,Haemophilus influenzae; [9],100 µg/mL
same,MIC,"Haemophilus influenzae; read-out: Mode MIC alone, Table IV, 25 strains",100 µg/mL
same,MIC,"Haemophilus influenzae; read-out: Mode MIC alone, Table V, 25 strains",200 µg/mL
same,"Mode MIC's of ampicillin and PA 1,1-Dioxide in combination",Haemophilus influenzae; [6],3.12 µg/mL
same,"Mode MIC's of penicillin G and PA 1,1-Dioxide in combination",Haemophilus influenzae; 25 strains,1.56 µg/mL
same,"Mode MIC's of carbenicillin and PA 1,1-Dioxide in combination","Haemophilus influenzae; Table IV, 25 strains, carbenicillin + PA 1,1-Dioxide in combination",0.78 µg/mL
same,"Mode MIC's of Cefazolin and PA 1,1-Dioxide in Combination","Haemophilus influenzae; Table V, 25 strains, Cefazolin + PA 1,1-Dioxide in combination",0.2 µg/mL
same,MIC,Klebsiella pneumoniae [1],50 µg/mL
same,"Mode MIC's of ampicillin and PA 1,1-Dioxide in combination",Klebsiella pneumoniae [1]; [7],6.25 µg/mL
same,Mode MIC alone,"Klebsiella pneumoniae [1]; Table III, 24 strains, alone",50 µg/mL
same,"Mode MIC's of penicillin G and PA 1,1-Dioxide in combination","Klebsiella pneumoniae [1]; Table III, 24 strains",12.5 µg/mL
same,Mode MIC alone,"Klebsiella pneumoniae [1]; Table IV, 16 strains, alone",50 µg/mL
same,"Mode MIC's of carbenicillin and PA 1,1-Dioxide in combination","Klebsiella pneumoniae [1]; Table IV, 16 strains, carbenicillin + PA 1,1-Dioxide in combination",6.25 µg/mL
same,"Mode MIC's of Cefazolin and PA 1,1-Dioxide in Combination","Klebsiella pneumoniae [1]; Table V, 3 strains, Cefazolin + PA 1,1-Dioxide in combination",25 µg/mL
same,Mode MIC alone,"Klebsiella pneumoniae [1]; Table V, 3 strains, alone",50 µg/mL
same,MIC,Staphylococcus aureus [2],200 µg/mL
same,"Mode MIC's of ampicillin and PA 1,1-Dioxide in combination",Staphylococcus aureus [2]; [8],3.12 µg/mL
same,Mode MIC alone,"Staphylococcus aureus [2]; Table III, 20 strains, alone",200 µg/mL
same,"Mode MIC's of penicillin G and PA 1,1-Dioxide in combination","Staphylococcus aureus [2]; Table III, 20 strains",6.25 µg/mL
same,Mode MIC alone,"Staphylococcus aureus [2]; Table IV, 20 strains, alone",200 µg/mL
same,"Mode MIC's of carbenicillin and PA 1,1-Dioxide in combination","Staphylococcus aureus [2]; Table IV, 20 strains, carbenicillin + PA 1,1-Dioxide in combination",6.25 µg/mL
same,"Mode MIC's of Cefazolin and PA 1,1-Dioxide in Combination","Staphylococcus aureus [2]; Table V, 20 strains, Cefazolin + PA 1,1-Dioxide in combination",25 µg/mL
same,Mode MIC alone,"Staphylococcus aureus [2]; Table V, 20 strains, alone",200 µg/mL
same,inhibition of microbial β-lactamases,microbial β-lactamases,potent inhibitors of microbial β-lactamases
same,enhancement of antibacterial effectiveness of β-lactam antibiotics,[5],enhances the effectiveness of ampicillin
